Values quoted from earlier work in US12409106B2, “Medical material” (Senju USA, Inc., priority 2022, dated 2025).

Conditions: Soong T. Chiang et al., Pharmacotherapy 1996

Structure (SMILES): Nc1c(CC(=O)O)cccc1C(=O)c1ccc(Br)cc1 [bromfenac]
- topical 50% effective concentration EC50 on pain after oral surgery: 0.36 µg/mL
